≈ marks a conversion by molar mass, not a printed value. One block for each compound: values may come before it.
Tests used:
[1] = biological target: Cyclin-dependent kinase 2 (Homo sapiens, UniProt P24941); assay: Inhibition of CDK2
[2] = Lipophilicity, log D of the compound; format: physicochemical; conditions: octanol/water
[3] = biological target: Voltage-gated inwardly rectifying potassium channel KCNH2 (Homo sapiens, UniProt Q12809); assay: Inhibition of human ERG
[4] = Clearance in rat at 2.5 umol/kg, iv; format: ADME, organism-based; conditions: in vivo
[5] = Volume of distribution at steady state in rat at 2.5 umol/kg, iv; format: ADME, organism-based; conditions: in vivo, read-out: Vdss
[6] = physchem; conditions: buffer, pH 7.4
Description: Equilibrium solubility at pH 7.4 after 24 hrs

[7] = test system: LoVo; assay: Antiproliferative activity against human LoVo cells assessed as inhibition of BrdU incorporation after 48 hrs; format: functional, cell-based
[8] = Dissociation constant, pKa of the compound; format: physicochemical
[9] = AUC in rat at 2.5 umol/kg, iv; format: ADME, organism-based; conditions: plasma
[10] = Protein binding in rat plasma assessed as fraction unbound; format: ADME, cell-free; conditions: read-out: PPB
[11] = biological target: Cyclin-dependent kinase 1 (Homo sapiens, UniProt P06493); assay: Inhibition of CDK1
Chain of Cyclin-dependent kinase 1 (P06493 whole entry): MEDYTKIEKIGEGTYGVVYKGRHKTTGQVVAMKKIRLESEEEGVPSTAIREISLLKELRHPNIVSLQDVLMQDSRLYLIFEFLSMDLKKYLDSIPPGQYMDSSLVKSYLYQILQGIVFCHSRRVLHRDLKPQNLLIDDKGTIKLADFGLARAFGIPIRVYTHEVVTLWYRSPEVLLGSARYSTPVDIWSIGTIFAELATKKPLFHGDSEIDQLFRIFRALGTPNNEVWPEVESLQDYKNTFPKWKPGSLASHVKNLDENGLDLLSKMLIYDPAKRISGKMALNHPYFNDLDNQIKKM

[12] = biological target: Cyclin-dependent kinase 9 (Homo sapiens) (UniProt P50750); assay: Inhibition of CDK9
Chain of Cyclin-dependent kinase 9 (Homo sapiens) (P50750 whole entry): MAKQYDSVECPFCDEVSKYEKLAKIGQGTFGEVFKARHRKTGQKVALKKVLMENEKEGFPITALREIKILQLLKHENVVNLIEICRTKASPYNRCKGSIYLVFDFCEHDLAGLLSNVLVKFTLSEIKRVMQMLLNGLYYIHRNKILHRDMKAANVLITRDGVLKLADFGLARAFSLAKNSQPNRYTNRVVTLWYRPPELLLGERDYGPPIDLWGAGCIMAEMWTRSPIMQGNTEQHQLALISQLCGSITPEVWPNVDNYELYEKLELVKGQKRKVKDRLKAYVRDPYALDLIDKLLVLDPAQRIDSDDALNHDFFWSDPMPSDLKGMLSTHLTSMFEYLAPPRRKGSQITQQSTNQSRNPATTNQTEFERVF

[13] = Protein binding in nude mouse plasma assessed as fraction unbound; format: ADME, cell-free; conditions: read-out: PPB
[14] = biological target: Cytochrome P450 2C9 (Homo sapiens, UniProt P11712); assay: Inhibition of CYP2C9; format: ADME
Chain of Cytochrome P450 2C9 (P11712 whole entry): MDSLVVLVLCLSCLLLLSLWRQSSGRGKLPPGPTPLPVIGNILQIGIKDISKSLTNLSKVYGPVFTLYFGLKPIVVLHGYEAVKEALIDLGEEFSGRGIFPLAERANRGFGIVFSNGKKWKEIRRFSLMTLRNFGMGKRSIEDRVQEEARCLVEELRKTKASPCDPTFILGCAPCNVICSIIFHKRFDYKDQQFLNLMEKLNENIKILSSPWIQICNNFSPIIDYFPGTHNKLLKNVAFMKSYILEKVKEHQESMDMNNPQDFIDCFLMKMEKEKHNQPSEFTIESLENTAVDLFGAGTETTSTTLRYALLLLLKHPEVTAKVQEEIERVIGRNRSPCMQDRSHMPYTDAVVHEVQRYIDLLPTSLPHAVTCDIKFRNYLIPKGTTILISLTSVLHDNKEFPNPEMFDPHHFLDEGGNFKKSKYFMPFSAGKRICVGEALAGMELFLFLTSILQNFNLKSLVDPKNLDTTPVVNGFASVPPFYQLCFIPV

[15] = organism: Canis familiaris; assay: Clearance in Beagle dog assessed as liver blood flow; format: ADME, organism-based, Canis lupus familiaris; conditions: in vivo
[16] = Clearance in nude mouse at 5 umol/kg, iv; format: ADME, organism-based; conditions: in vivo
[17] = Volume of distribution at steady state in nude mouse at 5 umol/kg, iv; format: ADME, organism-based; conditions: in vivo, read-out: Vdss
[18] = Stability in rat plasma; format: ADME, cell-free; conditions: read-out: Stability
[19] = test system: Mus musculus; assay: AUC in nude mouse at 5 umol/kg, iv; format: ADME, organism-based, Plasma; conditions: in vivo
[20] = Protein binding in Han/Wistar rat plasma assessed as fraction unbound; format: ADME, cell-free; conditions: read-out: PPB
[21] = Half life in Han/Wistar rat at 2.5 umol/kg, iv; format: ADME, organism-based; conditions: in vivo
[22] = biological target: T1, Cytochrome P450 1A2 (Homo sapiens, UniProt P05177); assay: Inhibition of CYP1A2; format: ADME
T1 sequence (P05177 whole entry): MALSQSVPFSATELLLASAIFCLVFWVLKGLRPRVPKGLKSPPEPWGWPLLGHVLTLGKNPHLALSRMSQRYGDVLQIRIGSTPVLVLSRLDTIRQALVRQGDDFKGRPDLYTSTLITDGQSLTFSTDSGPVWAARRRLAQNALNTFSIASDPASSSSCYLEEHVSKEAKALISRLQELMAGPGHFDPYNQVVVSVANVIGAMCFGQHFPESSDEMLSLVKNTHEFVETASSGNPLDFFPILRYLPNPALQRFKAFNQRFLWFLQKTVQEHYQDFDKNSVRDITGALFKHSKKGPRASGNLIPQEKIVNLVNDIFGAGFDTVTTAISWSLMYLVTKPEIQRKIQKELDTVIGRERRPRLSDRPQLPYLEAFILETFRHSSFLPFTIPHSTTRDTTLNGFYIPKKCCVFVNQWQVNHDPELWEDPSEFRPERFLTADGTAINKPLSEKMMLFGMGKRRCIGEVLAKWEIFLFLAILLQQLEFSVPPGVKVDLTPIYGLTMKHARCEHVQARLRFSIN

[23] = Aqueous solubility in saline at pH 5; format: physicochemical; conditions: read-out: Activity
[24] = Photostability assessed as half life; format: physicochemical
[25] = Hydrolytic stability assessed as half life at pH 4 to 10; format: physicochemical; conditions: buffer
[26] = Clearance in Han/Wistar rat at 2.5 umol/kg, iv; format: ADME, organism-based; conditions: in vivo
[27] = test system: Canis familiaris; assay: AUC in Beagle dog at 0.2 umol/kg, iv; format: ADME, organism-based, Canis lupus familiaris, Plasma; conditions: in vivo
[28] = biological target: Cytochrome P450 2D6 (Homo sapiens, UniProt P10635); assay: Inhibition of CYP2D6; format: ADME
Chain of Cytochrome P450 2D6 (P10635 whole entry): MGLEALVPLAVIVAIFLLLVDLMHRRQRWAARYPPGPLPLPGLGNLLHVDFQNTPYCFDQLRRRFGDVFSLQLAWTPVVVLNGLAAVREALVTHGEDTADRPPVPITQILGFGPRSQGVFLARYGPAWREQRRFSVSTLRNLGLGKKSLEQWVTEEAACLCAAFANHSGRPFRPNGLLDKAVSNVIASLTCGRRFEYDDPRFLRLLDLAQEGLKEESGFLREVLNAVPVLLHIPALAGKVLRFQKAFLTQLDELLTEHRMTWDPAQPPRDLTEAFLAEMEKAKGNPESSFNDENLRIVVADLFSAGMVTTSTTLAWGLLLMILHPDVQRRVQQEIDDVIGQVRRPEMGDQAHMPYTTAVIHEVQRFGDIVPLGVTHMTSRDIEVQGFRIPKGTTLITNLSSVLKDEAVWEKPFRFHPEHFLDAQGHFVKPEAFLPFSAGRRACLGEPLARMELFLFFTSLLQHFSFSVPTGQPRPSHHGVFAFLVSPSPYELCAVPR

[29] = Half life in nude mouse at 5 umol/kg, iv; format: ADME, organism-based; conditions: in vivo
[30] = test system: SW-620; assay: Antitumor activity against human SW620 cells xenografted nude mouse assessed as inhibition of tumor volume at 15 mg/kg, ip administered thrice a week for 3 weeks; format: functional; conditions: SW-620, ip, 504 h, route intraperitoneal
[31] = Half life in Beagle dog at 0.2 umol/kg, iv; format: ADME, organism-based, Canis lupus familiaris; conditions: in vivo
[32] = Clearance in Beagle dog at 0.2 umol/kg, iv; format: ADME, organism-based, Canis lupus familiaris; conditions: in vivo
[33] = biological target: Cytochrome P450 2C19 (Homo sapiens, UniProt P33261); assay: Inhibition of CYP2C19; format: ADME
Chain of Cytochrome P450 2C19 (P33261 whole entry): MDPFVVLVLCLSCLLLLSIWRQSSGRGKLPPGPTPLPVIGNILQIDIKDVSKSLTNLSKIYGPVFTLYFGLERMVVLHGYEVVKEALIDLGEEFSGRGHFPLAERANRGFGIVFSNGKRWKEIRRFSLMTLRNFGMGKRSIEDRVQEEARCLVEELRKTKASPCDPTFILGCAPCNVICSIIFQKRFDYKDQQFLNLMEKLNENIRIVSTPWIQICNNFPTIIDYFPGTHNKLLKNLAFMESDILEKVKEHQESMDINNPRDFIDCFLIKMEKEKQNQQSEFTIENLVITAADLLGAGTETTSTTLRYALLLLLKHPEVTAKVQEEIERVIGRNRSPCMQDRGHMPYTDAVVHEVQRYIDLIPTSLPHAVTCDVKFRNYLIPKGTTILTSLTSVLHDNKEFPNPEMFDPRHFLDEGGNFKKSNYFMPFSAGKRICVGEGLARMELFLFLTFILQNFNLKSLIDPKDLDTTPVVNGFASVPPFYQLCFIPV

[34] = Stability in human plasma; format: ADME, cell-free; conditions: read-out: Stability
[35] = test system: Rattus norvegicus; assay: AUC in Han/Wistar rat at 2.5 umol/kg, iv; format: ADME, organism-based, Plasma; conditions: in vivo
[36] = test system: Plasma; assay: Protein binding in Beagle dog plasma assessed as fraction unbound; format: ADME, cell-free, Canis lupus familiaris
[37] = Stability in dog plasma; format: ADME, cell-free, Canis lupus familiaris; conditions: read-out: Stability
[38] = Volume of distribution at steady state in Beagle dog at 0.2 umol/kg, iv; format: ADME, organism-based, Canis lupus familiaris; conditions: in vivo, read-out: Vdss
[39] = Volume of distribution at steady state in Han/Wistar rat at 2.5 umol/kg, iv; format: ADME, organism-based; conditions: in vivo, read-out: Vdss
[40] = biological target: Cytochrome P450 3A4 (Homo sapiens, UniProt P08684); assay: Inhibition of CYP3A4; format: ADME
Chain of Cytochrome P450 3A4 (P08684 whole entry): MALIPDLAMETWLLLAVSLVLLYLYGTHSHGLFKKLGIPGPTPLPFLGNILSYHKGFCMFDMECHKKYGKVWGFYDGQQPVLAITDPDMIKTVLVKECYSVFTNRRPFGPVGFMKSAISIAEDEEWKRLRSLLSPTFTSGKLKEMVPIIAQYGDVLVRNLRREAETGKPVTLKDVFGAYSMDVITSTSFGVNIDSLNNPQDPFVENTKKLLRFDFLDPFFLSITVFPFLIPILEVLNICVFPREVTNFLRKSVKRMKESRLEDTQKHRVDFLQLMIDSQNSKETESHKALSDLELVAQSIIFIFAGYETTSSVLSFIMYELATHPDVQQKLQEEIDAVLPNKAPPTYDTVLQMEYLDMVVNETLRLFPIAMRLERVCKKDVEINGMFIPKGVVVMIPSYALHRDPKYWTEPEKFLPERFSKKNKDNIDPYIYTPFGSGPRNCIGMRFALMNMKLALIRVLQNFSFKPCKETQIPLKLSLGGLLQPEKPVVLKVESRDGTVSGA

[41] = Volume of distribution at steady state in rat at 1 umol/kg, iv; format: ADME, organism-based; conditions: in vivo, read-out: Vdss
[42] = Clearance in rat at 1 umol/kg, iv; format: ADME, organism-based; conditions: in vivo
[43] = AUC in rat at 1 umol/kg, iv; format: ADME, organism-based; conditions: plasma

Chain of Voltage-gated inwardly rectifying potassium channel KCNH2 (Q12809 whole entry): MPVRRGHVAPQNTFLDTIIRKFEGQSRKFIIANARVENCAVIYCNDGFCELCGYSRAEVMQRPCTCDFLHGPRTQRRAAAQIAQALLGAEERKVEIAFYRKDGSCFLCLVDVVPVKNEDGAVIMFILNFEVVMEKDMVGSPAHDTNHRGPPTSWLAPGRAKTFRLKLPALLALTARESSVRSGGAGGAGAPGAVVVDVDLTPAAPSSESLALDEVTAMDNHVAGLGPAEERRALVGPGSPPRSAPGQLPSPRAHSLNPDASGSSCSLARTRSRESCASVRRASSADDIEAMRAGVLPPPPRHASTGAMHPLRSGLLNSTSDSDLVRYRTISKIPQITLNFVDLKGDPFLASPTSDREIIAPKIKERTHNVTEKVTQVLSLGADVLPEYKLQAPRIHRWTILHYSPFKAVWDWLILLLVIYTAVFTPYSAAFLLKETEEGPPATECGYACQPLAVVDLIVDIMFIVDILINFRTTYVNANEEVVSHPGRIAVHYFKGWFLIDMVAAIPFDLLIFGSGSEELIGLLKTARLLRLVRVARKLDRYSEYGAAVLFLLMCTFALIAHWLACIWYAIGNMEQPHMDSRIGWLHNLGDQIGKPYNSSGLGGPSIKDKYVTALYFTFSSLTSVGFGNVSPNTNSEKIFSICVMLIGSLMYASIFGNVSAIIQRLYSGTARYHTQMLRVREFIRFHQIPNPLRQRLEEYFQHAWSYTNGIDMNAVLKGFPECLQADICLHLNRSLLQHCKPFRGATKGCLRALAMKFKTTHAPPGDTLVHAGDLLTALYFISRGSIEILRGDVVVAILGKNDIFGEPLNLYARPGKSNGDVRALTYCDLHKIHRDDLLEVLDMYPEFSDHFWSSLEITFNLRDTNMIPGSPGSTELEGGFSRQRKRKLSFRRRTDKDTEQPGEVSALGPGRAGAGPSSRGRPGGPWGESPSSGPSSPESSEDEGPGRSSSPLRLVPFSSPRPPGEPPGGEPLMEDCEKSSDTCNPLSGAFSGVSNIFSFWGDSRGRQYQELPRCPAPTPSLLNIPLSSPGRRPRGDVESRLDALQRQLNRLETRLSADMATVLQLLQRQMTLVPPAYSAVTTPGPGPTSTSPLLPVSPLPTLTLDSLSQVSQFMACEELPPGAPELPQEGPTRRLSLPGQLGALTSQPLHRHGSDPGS

IC50 [1]: 0.002 µM | logD [2]: 2.3 | clearance [4]: 24 mL/min/kg | Vd [5]: 9.8 L/kg | solubility thermodynamic at 24 h [6]: > 2700 µM | IC50 [7]: 0.002 µM | pKa [8]: 8.6 | AUC [9]: 0.8 µM·h | fraction unbound [10]: 0.07 | IC50 [11]: < 0.001 µM | Activity [12]: 0.003 µM
SMILES: Cc1ncc(-c2nc(Nc3ccc(C(=O)NCCN(C)C)c(F)c3)ncc2F)n1C(C)C
Activity [3]: > 65 µM

IC50 [1]: 0.036 µM | solubility thermodynamic at 24 h [6]: > 2500 µM | IC50 [7]: 0.32 µM | IC50 [11]: 0.05 µM
SMILES: Cc1ncc(-c2nc(Nc3ccc(C(=O)NC4CCN(C)CC4)cc3)ncc2F)n1C(C)C

logD [2]: 2.1 | clearance [4]: 23 mL/min/kg | Vd [5]: 3.4 L/kg | solubility thermodynamic at 24 h [6]: > 2100 µM | IC50 [7]: 0.037 µM | pKa [8]: 7.4 | AUC [9]: 0.8 µM·h | fraction unbound [10]: 0.04 | IC50 [11]: 0.011 µM | Activity [12]: 0.005 µM
SMILES: Cc1ncc(-c2nc(Nc3ccc(C(=O)N4CC[C@H](N(C)C)C4)cc3)ncc2F)n1C(C)C
Activity [3]: 33 µM

IC50 [1]: 0.037 µM | IC50 [7]: 2.1 µM | IC50 [11]: 0.18 µM
SMILES: Cc1ncc(-c2ccnc(Nc3ccc(C(=O)NC4CCN(C)CC4)cc3)n2)n1C(C)C

IC50 [1]: 0.009 µM | IC50 [7]: 0.52 µM | pKa [8]: 7 | IC50 [11]: 0.071 µM
SMILES: Cc1ncc(-c2ccnc(Nc3ccc(C(=O)N4CCN(C)CC4)cc3)n2)n1C(C)C

IC50 [1]: 0.002 µM | fraction unbound [13]: 0.16 | Activity [14]: > 10 µM | %hepatic blood flow [15]: 58% | clearance [16]: 35 mL/min/kg | logD [2]: 1.45 | Vd [17]: 5.1 L/kg | half-life [18]: > 18 h | AUC [19]: 2.4 µM·h | fraction unbound [20]: 0.04 | half-life [21]: 3.6 h | Activity [22]: > 10 µM | solubility [23]: > 50 µM | half-life [24]: > 24 h | half-life [25]: > 100 days | clearance [26]: 30 mL/min/kg | AUC [27]: 0.18 µM·h | Activity [28]: > 10 µM | half-life [29]: 3.4 h | IC50 [7]: 0.039 µM | half-life [31]: 32.3 h | clearance [32]: 19 mL/min/kg | Activity [33]: > 10 µM | half-life [34]: > 18 h | AUC [35]: 1.38 µM·h | PPB [36]: > 67% | half-life [37]: > 18 h | IC50 [11]: 0.002 µM | Vd [38]: 40.4 L/kg | Vd [39]: 6.4 L/kg | Activity [40]: > 10 µM
SMILES: CN[C@H]1CCN(C(=O)c2ccc(Nc3ncc(F)c(-c4cnc(C)n4C(C)C)n3)cc2)C1
Activity [3]: 95 µM | inhibition in vivo at 15 mg/kg [30]: 55%

IC50 [1]: 0.002 µM | Vd [41]: 1.5 L/kg | logD [2]: 2 | clearance [42]: 28 mL/min/kg | AUC [43]: 0.3 µM·h | solubility thermodynamic at 24 h [6]: > 2600 µM | IC50 [7]: 0.04 µM | pKa [8]: 8.1 | fraction unbound [10]: 0.07 | IC50 [11]: 0.005 µM | Activity [12]: 0.012 µM
SMILES: Cc1ncc(-c2nc(Nc3ccc(C(=O)N4CCCN(C)CC4)cc3)ncc2F)n1C(C)C
Activity [3]: > 32 µM

IC50 [1]: 0.002 µM | IC50 [7]: 0.18 µM | IC50 [11]: 0.009 µM
SMILES: CN[C@H]1CCN(C(=O)c2ccc(Nc3nccc(-c4cnc(C)n4C(C)C)n3)cc2)C1

solubility thermodynamic at 24 h [6]: > 2400 µM | IC50 [7]: 0.07 µM | IC50 [11]: 0.011 µM
SMILES: Cc1ncc(-c2nc(Nc3ccc(C(=O)N4CC[C@@H](N(C)C)C4)cc3)ncc2F)n1C(C)C

IC50 [1]: < 0.001 µM | IC50 [7]: 0.25 µM | IC50 [11]: 0.1 µM
SMILES: Cc1ncc(-c2ccnc(Nc3ccc(C(=O)N4CC[C@H](NC5CC5)C4)cc3)n2)n1C(C)C

IC50 [1]: 0.018 µM | solubility thermodynamic at 24 h [6]: 60 µM (≈ 26.3 µg/mL) | IC50 [7]: 0.17 µM | pKa [8]: 6.9 | IC50 [11]: 0.13 µM
SMILES: Cc1ncc(-c2nc(Nc3ccc(C(=O)N4CCN(C)CC4)cc3)ncc2F)n1C(C)C

IC50 [1]: 0.011 µM | solubility thermodynamic at 24 h [6]: > 2200 µM | IC50 [7]: 0.2 µM | IC50 [11]: 0.15 µM
SMILES: Cc1ncc(-c2ccnc(Nc3ccc(C(=O)NC4CCN(C)CC4)c(F)c3)n2)n1C(C)C

solubility thermodynamic at 24 h [6]: > 1900 µM | IC50 [7]: 0.003 µM | IC50 [11]: 0.029 µM
SMILES: Cc1ncc(-c2ccnc(Nc3ccc(C(=O)NCCN(C)C)c(F)c3)n2)n1C(C)C

IC50 [1]: 0.001 µM | logD [2]: 2.4 | clearance [4]: 16 mL/min/kg | Vd [5]: 5.2 L/kg | solubility thermodynamic at 24 h [6]: 270 µM (≈ 127 µg/mL) | IC50 [7]: 0.08 µM | pKa [8]: 8.8 | AUC [9]: 1.3 µM·h | fraction unbound [10]: 0.06 | IC50 [11]: 0.012 µM | Activity [12]: 0.013 µM
SMILES: Cc1ncc(-c2nc(Nc3ccc(C(=O)NC4CCN(C)CC4)c(F)c3)ncc2F)n1C(C)C

IC50 [1]: 0.004 µM | IC50 [7]: 0.062 µM | IC50 [11]: 0.12 µM
SMILES: CCCN(C)[C@H]1CCN(C(=O)c2ccc(Nc3nccc(-c4cnc(C)n4C(C)C)n3)cc2)C1

From ChEMBL document CHEMBL1152195, “The discovery of AZD5597, a potent imidazole pyrimidine amide CDK inhibitor suitable for intravenous dosing” (Bioorg Med Chem Lett, 2008)
